Experimental findings from patent US8283361B2 (AstraZeneca AB, priority 2008, dated 2012) are described below.

For orientation: inhibition means the relative decrease from the control value, in per cent.

The assay addresses S. aureus GyrB ATPase (Staphylococcus aureus, UniProt P0A0K8). Description: biochemical. Conditions: compound at 1 μM, one value per test if tested more than once; for inhibition at 1 µM: read-out: % Inhibition of S. aureus GyrB ATPase. The procedure: S. aureus GyrB ATPase Inhibition Activity: Compounds may be tested for inhibition of S. aureus GyrB ATPase activity using an ammonium molybdate/malachite green-based phosphate detection assay (Lanzetta, P. A., L. J. Alvarez, P. S. Reinach, and O. A. Candia, 1979, 100: 95-97). Assays can be performed in multiwell plates in 30 μl reactions containing: 50 mM Hepes buffer pH 7.5, 75 mM ammonium acetate, 8.0 mM magnesium chloride, 0.5 mM ethylenediaminetetraacetic acid, 5% glycerol, 1.0 mM 1,4-Dithio-DL-threitol, 200 nM bovine serum albumin, 1.0 μg/m1 sheared salmon sperm DNA, 250 pM E. coli GyrA, 250 pM S. aureus GyrB, 250 μM ATP, and compound in dimethylsulfoxide. Reactions can be quenched with 30 μl of ammonium molybdate/malachite green detection reagent containing 1.2 mM malachite green hydrochloride, 8.5 mM ammonium molybdate tetrahydrate, and 1 M hydrochloric acid. […] An IC50 measurement of compound potency for each compound can be determined from reactions performed in the presence of 10 different compound concentrations.

Sequence of S. aureus GyrB ATPase (P0A0K8 whole entry): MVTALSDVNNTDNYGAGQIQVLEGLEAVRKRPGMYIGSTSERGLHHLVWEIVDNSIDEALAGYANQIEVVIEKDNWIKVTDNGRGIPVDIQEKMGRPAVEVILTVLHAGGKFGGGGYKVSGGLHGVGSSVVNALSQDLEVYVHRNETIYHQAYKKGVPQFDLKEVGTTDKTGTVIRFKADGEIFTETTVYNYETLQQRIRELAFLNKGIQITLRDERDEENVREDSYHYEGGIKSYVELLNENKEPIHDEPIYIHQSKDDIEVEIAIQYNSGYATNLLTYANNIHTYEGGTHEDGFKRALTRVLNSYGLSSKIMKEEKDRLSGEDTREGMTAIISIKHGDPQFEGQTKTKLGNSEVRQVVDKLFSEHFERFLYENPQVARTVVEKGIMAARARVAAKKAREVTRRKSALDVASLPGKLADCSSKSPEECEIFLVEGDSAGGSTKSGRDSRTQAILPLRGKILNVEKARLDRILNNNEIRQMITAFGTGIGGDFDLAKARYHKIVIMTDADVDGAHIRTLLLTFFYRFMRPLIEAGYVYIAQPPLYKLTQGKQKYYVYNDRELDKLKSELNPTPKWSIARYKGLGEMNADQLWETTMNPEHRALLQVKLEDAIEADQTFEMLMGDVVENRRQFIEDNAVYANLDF
Sequence of S. aureus GyrB ATPase (P0AES4 whole entry, further chain): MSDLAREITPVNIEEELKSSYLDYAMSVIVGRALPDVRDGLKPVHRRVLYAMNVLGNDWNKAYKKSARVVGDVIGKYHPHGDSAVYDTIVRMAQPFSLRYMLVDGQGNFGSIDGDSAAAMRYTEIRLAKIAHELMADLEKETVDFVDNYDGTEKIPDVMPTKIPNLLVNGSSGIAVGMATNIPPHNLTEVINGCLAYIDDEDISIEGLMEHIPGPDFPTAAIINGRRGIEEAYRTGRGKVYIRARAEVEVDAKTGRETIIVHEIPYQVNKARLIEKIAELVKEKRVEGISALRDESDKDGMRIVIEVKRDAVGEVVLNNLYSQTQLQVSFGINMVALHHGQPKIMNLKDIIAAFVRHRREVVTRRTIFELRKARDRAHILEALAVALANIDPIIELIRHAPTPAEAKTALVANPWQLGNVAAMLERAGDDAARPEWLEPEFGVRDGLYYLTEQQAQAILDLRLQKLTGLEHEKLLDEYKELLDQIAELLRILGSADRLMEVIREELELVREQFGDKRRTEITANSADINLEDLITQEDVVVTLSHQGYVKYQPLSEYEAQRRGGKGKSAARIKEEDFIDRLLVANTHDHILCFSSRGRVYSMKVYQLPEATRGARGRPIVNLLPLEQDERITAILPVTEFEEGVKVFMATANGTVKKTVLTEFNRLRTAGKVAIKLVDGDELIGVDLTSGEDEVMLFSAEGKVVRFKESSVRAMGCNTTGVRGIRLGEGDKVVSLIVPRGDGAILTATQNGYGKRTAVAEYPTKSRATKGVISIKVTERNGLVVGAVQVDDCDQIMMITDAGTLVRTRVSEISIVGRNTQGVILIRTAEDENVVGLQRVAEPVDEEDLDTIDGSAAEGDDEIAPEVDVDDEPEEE

In the case of `CCNC(=O)Nc1cc(-c2nc(C(F)(F)F)cs2)c(-c2ccc3c(=O)c(C(=O)O)cn(CC4CC4)c3c2)cn1` [Example 32, 1-(cyclopropylmethyl)-7-{6-[(ethylcarbamoyl)amino]-4-[4-(trifluoromethyl)-1,3-thiazol-2-yl]pyridin-3-yl}-4-oxo-1,4-dihydroquinoline-3-carboxylic acid], the inhibition at 1 µM was determined as 98%. For `CCNC(=O)Nc1cc(-c2nc(C(F)(F)F)cs2)c(-c2ccc3c(=O)c(C(=O)NC)cn(CC)c3c2)cn1` [Example 33, 1-ethyl-7-(6-(3-ethylureido)-4-(4-(trifluoromethyl)thiazol-2-yl)pyridin-3-yl)-N-methyl-4-oxo-1,4-dihydroquinoline-3-carboxamide], the inhibition at 1 µM was determined as 97%. Further, where the note is “1 µM”, the “% Inhibition of S. aureus GyrB ATPase” value was 109%.

Consider `CCNC(=O)Nc1cc(-c2nc(C(F)(F)F)cs2)c(-c2ccc3c(c2)c(=O)c(C(=O)NC)cn3CC)cn1` [Example 34, 1-ethyl-6-(6-(3-ethylureido)-4-(4-(trifluoromethyl)thiazol-2-yl)pyridin-3-yl)-N-methyl-4-oxo-1,4-dihydroquinoline-3-carboxamide], for which the inhibition at 1 µM was 100%. With `CCNC(=O)Nc1cc(-c2nc(CC)cs2)c(-c2ccc3c(=O)c(C(=O)NC)cn(CC)c3c2)cn1` [Example 36, 1-ethyl-7-(4-(4-ethylthiazol-2-yl)-6-(3-ethylureido)pyridin-3-yl)-N-methyl-4-oxo-1,4-dihydroquinoline-3-carboxamide], the inhibition at 1 µM was found to be 64%.

Regarding `CCNC(=O)Nc1cc(-c2nc(CC)cs2)c(-c2ccc3c(c2)c(=O)c(C(=O)NC)cn3CC)cn1` [Example 37, 1-ethyl-6-(4-(4-ethylthiazol-2-yl)-6-(3-ethylureido)pyridin-3-yl)-N-methyl-4-oxo-1,4-dihydroquinoline-3-carboxamide], the inhibition at 1 µM came to 96%. On to `CCNC(=O)Nc1cc(-c2nc(CC)cs2)c(-c2cc3c4c(c2)c(=O)c(C(=O)NC)cn4CCO3)cn1` [Example 38, 9-(4-(4-ethylthiazol-2-yl)-6-(3-ethylureido)pyridin-3-yl)-N-methyl-7-oxo-3,7-dihydro-2H-[1,4]oxazino[2,3,4-ij]quinoline-6-carboxamide], for which the inhibition at 1 µM was determined as 99%. As to `CCNC(=O)Nc1cc(-c2nc(-c3ccccc3)cs2)c(-c2ccc3c(=O)c(C(=O)NC)cn(CC)c3c2)cn1` [Example 39, 1-ethyl-7-(6-(3-ethylureido)-4-(4-phenylthiazol-2-yl)pyridin-3-yl)-N-methyl-4-oxo-1,4-dihydroquinoline-3-carboxamide], the inhibition at 1 µM was 101%. Same read-out and setting: as for `CCNC(=O)Nc1cc(-c2nc(-c3ccccc3)cs2)c(-c2cc3c4c(c2)c(=O)c(C(=O)NC)cn4CCO3)cn1` [Example 41, 9-(6-(3-ethylureido)-4-(4-phenylthiazol-2-yl)pyridin-3-yl)-N-methyl-7-oxo-3,7-dihydro-2H-[1,4]oxazino[2,3,4-ij]quinoline-6-carboxamide], the figure is 105%.

Turning to `CCNC(=O)Nc1cc(-c2nc(C(F)(F)F)cs2)c(-c2ccc3c(=O)c(C(=O)OCC)cn(CC)c3c2)cn1` [Example 42, Ethyl 1-ethyl-7-(6-(3-ethylureido)-4-(4-trifluoromethylthiazol-2-yl)pyridin-3-yl)-4-oxo-1,4-dihydroquinoline-3-carboxylate], the inhibition at 1 µM was 113%. `CCNC(=O)Nc1cc(-c2nc(-c3ccccc3)cs2)c(-c2ccc3c(=O)c(C(=O)OCC)cn(CC)c3c2)cn1` [Example 44, ethyl 1-ethyl-7-(6-(3-ethylureido)-4-(4-phenylthiazol-2-yl)pyridin-3-yl)-4-oxo-1,4-dihydroquinoline-3-carboxylate]: the inhibition at 1 µM is 98%. `CCNC(=O)Nc1cc(-c2nc(C(F)(F)F)cs2)c(-c2cc3c4c(c2)c(=O)c(C(=O)OCC)cn4CCO3)cn1` [Example 48, ethyl 9-(6-(3-ethylureido)-4-(4-trifluoromethylthiazol-2-yl)pyridin-3-yl)-7-oxo-3,7-dihydro-2H-[1,4]oxazino[2,3,4-ij]quinoline-6-carboxylate]: the inhibition at 1 µM worked out at 106%. On the same count and under the same terms, in the case of `CCNC(=O)Nc1cc(-c2nc(C(F)(F)F)cs2)c(-c2ccc3c(c2)c(=O)c(C(=O)O)cn3[C@@H](C)CO)cn1` [Example 71, (S)-6-(6-(3-ethylureido)-4-(4-(trifluoromethyl)thiazol-2-yl)pyridin-3-yl)-1-(1-hydroxypropan-2-yl)-4-oxo-1,4-dihydroquinoline-3-carboxylic acid] it was 107%; in that of `CCNC(=O)Nc1cc(-c2nc(C(F)(F)F)cs2)c(-c2ccc3c(c2)c(=O)c(C(=O)O)cn3[C@H](C)CO)cn1` [Example 72, (R)-6-(6-(3-ethylureido)-4-(4-(trifluoromethyl)thiazol-2-yl)pyridin-3-yl)-1-(1-hydroxypropan-2-yl)-4-oxo-1,4-dihydroquinoline-3-carboxylic acid], 103%. Still for that read-out and setting: in the case of `CCNC(=O)Nc1cc(-c2nc(C(F)(F)F)cs2)c(-c2ccc3c(c2)c(=O)c(C(=O)O)cn3[C@H](CO)[C@@H](C)O)cn1` [Example 73, 1-((2R,3R)-1,3-dihydroxybutan-2-yl)-6-(6-(3-ethylureido)-4-(4-(trifluoromethyl)thiazol-2-yl)pyridin-3-yl)-4-oxo-1,4-dihydroquinoline-3-carboxylic acid] it was 105%; in that of `CCNC(=O)Nc1cc(-c2nc(C(F)(F)F)cs2)c(-c2ccc3c(c2)c(=O)c(C(=O)O)cn3[C@H](CO)Cc2ccccc2)cn1` [Example 74, (S)-6-(6-(3-ethylureido)-4-(4-(trifluoromethyl)thiazol-2-yl)pyridin-3-yl)-1-(1-hydroxy-3-phenylpropan-2-yl)-4-oxo-1,4-dihydroquinoline-3-carboxylic acid], 103%; in that of `CCNC(=O)Nc1cc(-c2nc(C(F)(F)F)cs2)c(-c2ccc3c(c2)c(=O)c(C(=O)O)cn3C(CO)CO)cn1` [Example 75, 1-(1,3-dihydroxypropan-2-yl)-6-(6-(3-ethylureido)-4-(4-(trifluoromethyl)thiazol-2-yl)pyridin-3-yl)-4-oxo-1,4-dihydroquinoline-3-carboxylic acid], 102%. In the case of `CCNC(=O)Nc1cc(-c2nc(C(F)(F)F)cs2)c(-c2ccc3c(c2)c(=O)c(C(=O)O)cn3[C@@H](CO)C(C)(C)C)cn1` [Example 76, (R)-6-(6-(3-ethylureido)-4-(4-(trifluoromethyl)thiazol-2-yl)pyridin-3-yl)-1-(1-hydroxy-3,3-dimethylbutan-2-yl)-4-oxo-1,4-dihydroquinoline-3-carboxylic acid], the inhibition at 1 µM stood at 110%.

As for `CCNC(=O)Nc1cc(-c2nc(C(F)(F)F)cs2)c(-c2ccc3c(c2)c(=O)c(C(=O)O)cn3[C@@H](CO)Cc2ccc(O)cc2)cn1` [Example 77, (R)-6-(6-(3-ethylureido)-4-(4-(trifluoromethyl)thiazol-2-yl)pyridin-3-yl)-1-(1-hydroxy-3-(4-hydroxyphenyl)propan-2-yl)-4-oxo-1,4-dihydroquinoline-3-carboxylic acid], the inhibition at 1 µM was found to be 110%. On the same count and under the same terms, as for `CCNC(=O)Nc1cc(-c2nc(C(F)(F)F)cs2)c(-c2ccc3c(c2)c(=O)c(C(=O)O)cn3[C@H](CO)C2CCCCC2)cn1` [Example 78, (S)-1-(1-cyclohexyl-2-hydroxyethyl)-6-(6-(3-ethylureido)-4-(4-(trifluoromethyl)thiazol-2-yl)pyridin-3-yl)-4-oxo-1,4-dihydroquinoline-3-carboxylic acid], the figure is 102%; as for `CCNC(=O)Nc1cc(-c2nc(C(F)(F)F)cs2)c(-c2ccc3c(c2)c(=O)c(C(=O)O)cn3[C@H](CC)CO)cn1` [Example 79, (R)-6-(6-(3-ethylureido)-4-(4-(trifluoromethyl)thiazol-2-yl)pyridin-3-yl)-1-(1-hydroxybutan-2-yl)-4-oxo-1,4-dihydroquinoline-3-carboxylic acid], 97%.

As for `CCNC(=O)Nc1cc(-c2nc(C(F)(F)F)cs2)c(-c2ccc3c(c2)c(=O)c(C(=O)O)cn3C(CO)C2CCOCC2)cn1` (stereo not drawn) [Example 80, 6-(6-(3-ethylureido)-4-(4-(trifluoromethyl)thiazol-2-yl)pyridin-3-yl)-1-(-hydroxy-1-(tetrahydro-H-pyran-4-yl)ethyl)-4-oxo-1,4-dihydroquinoline-3-carboxylic acid], the inhibition at 1 µM was 96%. Still for that read-out and setting: as for `CCNC(=O)Nc1cc(-c2nc(C(F)(F)F)cs2)c(-c2ccc3c(c2)c(=O)c(C(=O)O)cn3[C@H](CO)C(C)(C)C)cn1` [Example 81, 6-{6-[(ethylcarbamoyl)amino]-4-[4-(trifluoromethyl)-1,3-thiazol-2-yl]pyridin-3-yl}-1-[(1S)-1-(hydroxymethyl)-2,2-dimethylpropyl]-4-oxo-1,4-dihydroquinoline-3-carboxylic acid], the figure is 96%; as for `CCNC(=O)Nc1cc(-c2nc(C(F)(F)F)cs2)c(-c2ccc3c(c2)c(=O)c(C(=O)O)cn3[C@H](CO)C(C)C)cn1` [Example 82, 6-{6-[(ethylcarbamoyl)amino]-4-[4-(trifluoromethyl)-1,3-thiazol-2-yl]pyridin-3-yl}-1-[(1S)-1-(hydroxymethyl)-2-methylpropyl]-4-oxo-1,4-dihydroquinoline-3-carboxylic acid], 111%.
